The source of these data is patent publication US11992011B2, “Compounds for controlling plant pathogens” (VIB VZW, priority 2017, dated 2024).

Structures are written as SMILES.

For assay [1], the system named is J2 juveniles of Meloidogyne graminicola. The experiment in a line: In vitro nematode toxicity assay, M. graminicola J2 (Example 11). The settings on record: Vertimec 0.02 v/v % abamectin. On the procedure: (§1) J2 juveniles of Meloidogyne graminicola and Heterodera schachtii were isolated from Echinocloa cruss-galli roots and sugar beet roots respectively. Per treatment and species combination, 300 nematodes were isolated and divided over six wells that contained 1.5 ml of either sterilized tap water, a 100 μM C4H inhibitor solution or a 0.02 v/v % solution of the nematicide abamectin (Vertimec®, Syngenta AG). The nematodes were incubated in the dark on a slow-moving rotary shaker (50 rpm) and the number of living nematodes was counted regularly using a binocular microscope.
(§2) To rule out definitively that the compounds of the invention operate through direct toxicity to nematodes, an in vitro toxicity assay on J2 juveniles of the nematodes Meloidogyne graminicola and Heterodera schachtii was performed.
(§3) First, survival upon exposure to the C4H inhibitor piperonylic acid (PA) was compared to a negative control (tap water) and a positive control, the commercial nematicide Vertimec (0.02% Abamectin). A detailed survival curve is shown in FIG. 12a (M. graminicola) and FIG. 12b (H. schachtii).
In a second experiment, a broader range of C4H inhibitors were assayed in the same manner. The toxicity of piperonylic acid (PA), piperine (PIP), 4-propynyloxybenzoic acid (4PB), and 3-(4-pyridyl)acrylic acid (3PA) to J2 juveniles of Meloidogyne graminicola was compared to a negative control (tap water) and a true nematicide (Vertimec, active ingredient abamectin).

Assay [2] relates to J2 juveniles of Heterodera schachtii. The experiment in a line: In vitro nematode toxicity assay, H. schachtii J2 (Example 11). The settings on record: PA 100 μM, Vertimec 0.02 v/v % abamectin, control 83.1±7.6. Here is the method: as §1, §2, §3
The test system of assay [3] is Botrytis cinerea (isolate R16). The assay is described as follows: Botrytis cinerea infection of detached tomato leaves (Example 13). It counts as in vivo. Also noted: dose or concentration left out as unconfirmed. The following applies: spray containing PA, four days after inoculation, vs control. Here is the method: Tomato plants (cv. Moneymaker) were grown for four weeks in potting soil as described in the plant material section. Six hours before inoculation, the third leaf of each tomato plant was detached. The petioles were wrapped in wet tissue paper and the leaves were placed on a petri dish. […] Finally, the tray was covered with a plastic autoclave bag to keep humidity at 100%.
Botrytis cinerea (line R16) spores were obtained as described in the fungal culture section, centrifuged for five minutes at 3000 rpm and resuspended to a concentration of 1.0×10^6 spores per ml with a solution of 0.01 M glucose and 0.0067 M KH2PO4. The spore suspension was left at room temperature for one hour to trigger germination. […]
Six drops of spore suspension of 15 μl each were spotted on each detached tomato leaf, after which the tray was covered again. The tray was placed at room temperature away from direct sunlight and left for four days. At this point, chlorophyll fluorescence measurements were taken to assess the success of infection. Two parameters were assessed: whether the B. cinerea lesion had spread beyond the droplet area (successful invasion) and the total surface area of successfully established lesions (post-invasion growth).

The test system of the next assay is Meloidogyne incognita. The assay is described as follows: M. incognita infection in DIECA-treated tomato (Example 18). The settings on record: PA together with DIECA. It counts as in vivo. Here is the method: Infection experiments with M. incognita were performed in the same manner as those with M. graminicola, except that plants were harvested 31 days after inoculation instead of 14 days. At this point, the plants were phenotyped by measuring the root length with a ruler and in some experiments by measuring leaf area using the EasyLeafArea software (Easlon and Bloom, 2014) and by determining shoot dry mass after 72 hours of drying in an oven at 70° C. Galls were stained and counted as described above.
To determine whether C4H inhibitors depend on this hormonal pathway, it was tested whether tomato plants treated with the chemical inhibitor of jasmonic acid biosynthesis diethyldithiocarbamate (DIECA) (Farmer et al., 1994) still responded to PA treatment.

`O=C(O)c1ccc2c(c1)OCO2` [PA, Piperonylic acid]: the “survival after 24 hours of exposure” value in assay [1] (PA 100 μM, control 94.2±2.4) was found to be 97.1±1.8%. Further, in assay [1] (second experiment, C4H inhibitor 100 μM, water control 93%), the “survival at the end of the experiment” value is listed as 95%. The “survival after 24 hours of exposure” value in assay [2] amounted to 92.8±2.5%. Moreover, in assay [3], the “change of mean size of successfully established/spreading lesions” value was −62% and the “change of number of inoculation spots in which fungal lesions developed” value is listed as −50%. Further, the “change of number of galls, plants treated with both PA and DIECA vs untreated wild type plants” value with Meloidogyne incognita was −31%. Moreover, in the assay with Meloidogyne incognita (not significant), the “difference in number of galls, plants treated with both PA and DIECA vs PA-treated wild type plants” value was “+14%”.
